In assay [1] the test system is Human odontoblast (HOB) cells. Description: Evaluation of calcification promoting action using human odontoblasts (Alizarin red and von Kossa staining). It is filed as cell-based. The note with it: for calcification promoting action: calcification medium with additive, Alizarin red / von Kossa staining; for relative calcification promoting action (comparison among compounds): compared by concentration of particularly high action and by extent of staining at 50 μM. Here is the method: 1. Cultivation of Human Odontoblast (Human Odontoblast (HOB) Cells)
HOB cells are seeded in a T75 flask and cultivated until confluency was achieved. A culture medium (hereinafter referred to as “regular medium”) was prepared by adding 10% of fetal bovine serum (FBS) (Life Technologies Ltd.; Product No. 10437-028), 1% of penicillin-streptomycin (Life Technologies Ltd.; Product No. 15140-122), 1% of amphotericin B (Sigma-Aldrich, Product No. A2942-100ML) to MEMα (Life Technologies Ltd.; Product No. 12561-049, 12561-056). Cultivation was performed under an environment with a temperature of 37° C. and 5% of CO2.
Then the HOB Cells were seeded on an adherent cell cultivation plate (Sumitomo Bakelite Co., Ltd) such that the cell density per 1 well was 1.78 to 2.56×10^5 cells/mL, and cultivated under the same environment. As the adherent cell cultivation plate, plates having 6 to 96 wells were appropriately used.
Four days later, each culture medium was changed from the regular medium to a calcification medium, or to a culture medium (hereinafter, referred to as “additive containing calcification medium”) prepared by adding additional components shown in the following Table 4 and Table 5 to the calcification medium so as to achieve the concentrations shown in Table 4 and Table 5. The calcification medium is prepared by adding L (+)-ascorbic acid (Wako Pure Chemical Industries, Ltd. (currently Fujifilm Wako Pure Chemical Corporation), Product No. 016-04805) to the aforementioned regular mediums such that the concentration in the calcification medium (that is, the final concentration) was 50 μg/mL, and by adding β-glycerophosphoric acid (Fujifilm Wako Pure Chemical Corporation, Product No. 191-02042) to the aforementioned regular mediums such that the concentration in the calcification medium (that is, the final concentration) is 10 mM.
Then, the cultivation was performed under the environment at 37° C. with 5% of CO2 for 21 or 28 days while exchanging the calcification medium or the additive containing calcification medium twice a week. Then the following staining was performed.
Alizarin red staining and von Kossa staining were performed to evaluate calcification promoting effect.
Each well was washed twice using Dulbecco's phosphate buffered saline (DPBS) (Life Technologies Ltd.; Product No. 14190-144) the amount of which was equal to the specified amount of culture medium in the adherent cell cultivation plate. After removing the DPBS from each well, 4% paraformaldehyde phosphate buffer solution (Fujifilm Wako Pure Chemical Corporation, Product No. 163-20145), the amount of which was equal to a half the amount of the specified amount of the culture medium, was introduced to each well, and each well was left for five minutes at a room temperature.
Then, each well was washed twice using the DPBS the amount of which was equal to the specified amount of the culture medium. After removing the DPBS from each well, Alizarin red staining solution, the amount of which was equal to a half the amount of the specified amount of the culture medium, was introduced to each well, and each well was left for ten minutes. The Alizarin red staining solution was prepared by dissolving a commercially available staining solution (Product name: “Alizarin red S”, Wako Pure Chemical Industries, Ltd. (currently Fujifilm Wako Pure Chemical Corporation), Product No. 011-01192) with ultrapure water (Milli-Q (registered trademark) water), and the pH was adjusted to be within a range from 6.36 to 6.40 using ammonium hydroxide solution.
Each well was then washed five times using the ultrapure water (same as above), the amount of which was equal to the specified amount of the culture medium.
Each well was washed three times using the Dulbecco's phosphate buffered saline (DPBS) (same as above) the amount of which was equal to the specified amount of the culture medium in the adherent cell cultivation plate.

The conditions of assay [2]: used in human, dental clinical practices; cited from earlier work.

Each structure is given as a SMILES string. Entries after “also recorded” stand apart in the source; their conditions may differ.

As for `C[S+]([O-])CCCCN` (stereo not shown) [4-MS amine, 4-methylsulfinylbutyl amine, reference compound], the calcification promoting action entry in assay [1] (HOB cells, 21 or 28 days) was “completely no calcification promoting action”.
For the molecule `C[S+]([O-])CCCCN=C=S` (stereo not shown) [4-MSITC, 4-methylsulfinylbutyl isothiocyanate], the calcification promoting action entry in assay [1] (HOB cells, 21 or 28 days) is “possess calcification promoting action”. For the same molecule, the “relative calcification promoting action (comparison among compounds)” value in assay [1] is “particularly high”.
For `CS(=O)(=O)CCCCCCN=C=S` [6-MSFITC, 6-methylsulfonylhexyl isothiocyanate] the same measures were “possess calcification promoting action” and “particularly high; also recorded: higher calcification promoting action than the 4-MSITC”.
In the case of `C[S+]([O-])CCCCCCCCN=C=S` (stereo not shown) [8-MSITC, 8-methylsulfinyloctyl isothiocyanate], the calcification promoting action result in assay [1] (HOB cells, 21 or 28 days) was “possess calcification promoting action”. Also, the “relative calcification promoting action (comparison among compounds)” value in assay [1] is recorded as “particularly high; also recorded: about the same as the calcification promoting action of the 4-MSITC”.
On to `C=CCN=C=S` [AITC, allyl isothiocyanate, reference compound], for which, in assay [1] (HOB cells, 21 or 28 days), the calcification promoting action entry was “completely no calcification promoting action”. The calcification action result in assay [1] (range up to 500 μM) was “not exhibited”.
On to `S=C=NCCc1ccccc1` [PITC, phenethyl isothiocyanate], for which, in assay [1] (HOB cells, 21 or 28 days, staining), the “concentration at which particularly high calcification promoting action was observed” value was ≥ 500 µM. In addition, the calcification promoting action result in assay [1] (HOB cells, 21 or 28 days) is given as “possess calcification promoting action”.
`[Ca+2].[OH-].[OH-]` [calcium hydroxide]: in assay [2], the “normal duration of time until calcification occurs” value was “three months”.
Take `CCN[C@H]1C[C@H](C)S(=O)(=O)c2sc(S(N)(=O)=O)cc21` [dorzolamide, reference compound]: in assay [1] (dorzolamide, inhibitor of carbonic anhydrase, used with 6-MSITC), the “effect on calcification when used with 6-methylsulfinylhexyl isothiocyanate” value is given as “calcification is inhibited”.

Values taken from patent US20240041733A1, “DENTAL CARE COMPOSITION AND METHOD OF PROMOTING CALCIFICATION IN LIVING BODY TISSUE” (KINJIRUSHI CO., LTD., priority 2020, published 2024).
